31 compounds from US20230091047A1 (priority 2019, published 2023) can be followed below.

SMILES strings stand for the structures. Where two headings read alike, the source gives them in different places. Bounds are passed on as bounds.

The subject of data set [1] is HBV (HepG2.117 cell line, inducibly HBV producing). Description: Anti-HBV activity: intracellular HBV DNA by real-time PCR in HepG2.117 cells after 3 days of treatment. It counts as cell-based, hepatitis B virus. An outline of the steps: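 First, HBV replication is induced in HepG2.117 cells by doxycycline absence. Next, serially diluted compound is added for 3 days. Finally, intracellular HBV DNA is quantified by HBV-specific real-time PCR.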
(In general: In qPCR the cycle at which signal appears reflects the starting amount.)

The nature of another data set: in vitro. It counts as cell-based. The conditions noted are these: human, HepG2 or HepG2.117 cells, mean value; for CC50 at 4 days: 4-days incubation (values marked with *). An outline of the steps:
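Luminescent ATP quantitation served as the viability endpoint following a 3- or 4-day incubation with test compounds.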

Where [2] appears, read: Hepatitis B virus, HepG2.117, 72 h, HepG2.117 cells, intracellular HBV DNA by real-time PCR, 3 days of treatment, mean value; read-out: EC50 (μM, mean value).
Where [3] appears, read: ATPlite, 3-days incubation (not marked with *).
[4] abbreviates: Hepatitis B virus, HepG2.117, 72 h, HepG2.117 cells, 3 days of treatment, intracellular HBV DNA by real-time PCR; mean value; read-out: EC50 (μM, mean value).
The mark [5] stands for this setting: 3-days incubation (unmarked values), ATPlite.

The EC50 is the concentration needed to bring the measured effect to its halfway point. Usually CC50 stands for the concentration giving 50% cytotoxicity. Low values mean greater toxicity to the cells, high ones lower toxicity to the cells.

Turning to `CNC(=O)c1ccc(-n2c(NC(C)C)nc3c(c2=O)C[C@@H](C)N(C(=O)c2ccc(Cl)c(C(F)(F)F)c2)C3)cc1Cl` [Compound C642], in data set [1] (setting [2]), the EC50 worked out at 0.04 µM. The 50% cytotoxic concentration (CC50) at 3 days in the data set “in vitro” (setting [3]) is > 50 µM.

As to `CNC(=O)c1ccc(-n2c(NC(C)C)nc3c(c2=O)C[C@@H](C)N(C(=O)c2cc4c(C)cc(OC)cc4[nH]2)C3)cc1` [Compound C567], in data set [1] (setting [2]), the EC50 stood at 0.67 µM. In “in vitro” (setting [3]), half-maximal cytotoxicity (CC50 at 3 days) was put at 36.5 µM.

Turning to `CNC(=O)[C@H]1CC[C@H](n2c(N[C@@H](C)c3ccc(OC(F)(F)F)cc3)nc3c(c2=O)C[C@@H](C)N(C(=O)c2ccc(Cl)c(Cl)c2)C3)CC1` [Compound C632], the EC50 in data set [1] (setting [2]) was found to be 0.12 µM. The same compound showed a CC50 at 3 days in “in vitro” (setting [3]) of 6.2 µM.

With `CNC(=O)c1ccc(-n2c(N[C@@H](C)c3ccc(OC)cc3)nc3c(c2=O)C[C@@H](C)N(C(=O)c2ccc(Cl)c(Cl)c2)C3)cc1` (single isomer, unassigned) [Compound C347b], the half-maximal effective concentration (EC50) in data set [1] (setting [2]) was determined as 0.27 µM. For the same compound, the CC50 at 3 days in “in vitro” (setting [3]) is > 50 µM.

Take `COc1ccccc1-n1c(SC)nc2c(c1=O)CCN(C(=O)c1ccc(Cl)c(Cl)c1)C2` [Compound C4, 7-(3,4-dichlorobenzoyl)-3-(2-methoxyphenyl)-2-(methylsulfanyl)-5,6,7,8-tetrahydropyrido[3,4-d]pyrimidin-4(3H)-one]: in data set [1] (setting [4]), the EC50 came to 1.79 µM. In the data set “in vitro” (ATPlite), this compound showed a CC50 at 4 days of 36.8 µM.

In the case of `C[C@H](Nc1nc2c(c(=O)n1-c1ccc(-n3cccn3)cc1)C[C@@H](C)N(C(=O)c1ccc(Cl)c(Cl)c1)C2)c1ccc(OC(F)(F)F)cc1` (single isomer, unassigned) [Compound C463b], the EC50 in data set [1] (setting [2]) was 7.21 µM. Further, the CC50 at 3 days in “in vitro” (setting [3]) is > 50 µM.

With `CNC(=O)c1ccc(-n2c(N[C@@H](C)c3ccccn3)nc3c(c2=O)C[C@@H](C)N(C(=O)c2ccc(Cl)c(Cl)c2)C3)cc1` (single isomer, unassigned) [Compound C321, 4-[(6R)-7-(3,4-dichlorobenzoyl)-6-methyl-4-oxo-2-{[(1*S)-1-(pyridin-2-yl)ethyl]amino}-5,6,7,8-tetrahydropyrido[3,4-d]pyrimidin-3(4H)-yl]-N-methylbenzamide], the EC50 in data set [1] (setting [4]) is 0.94 µM. In addition, in “in vitro” (setting [5]), the CC50 at 3 days is > 50 µM.

In the case of `CNC(=O)c1ccc(-n2c(NC(C)C)nc3c(c2=O)C[C@@H](C)N(C(=O)c2cc(F)c(Br)cc2Cl)C3)cc1` [Compound C592], the EC50 in data set [1] (setting [2]) is 0.7 µM. For the same compound, the cytotoxic concentration (CC50) at 3 days in the data set “in vitro” (setting [3]) was > 50 µM.

Turning to `CNC(=O)c1ccc(-n2c(NC(C)C)nc3c(c2=O)C[C@@H](C)N(C(=O)c2ccc(Br)c(C)c2F)C3)cc1` [Compound C584], the EC50 in data set [1] (setting [2]) is 0.1 µM. In the data set “in vitro” (setting [3]), the CC50 at 3 days was > 50 µM.

As for `CNC(=O)c1ccc(-n2c(NC(C)C)nc3c(c2=O)C[C@@H](C)N(C(=O)c2cc(C)c(F)c(C)c2)C3)cc1` [Compound C501], the EC50 in data set [1] (setting [2]) stood at 0.36 µM. For the same compound, the CC50 at 3 days in “in vitro” (setting [3]) is > 50 µM.

As for `CNC(=O)c1ccc(-n2c(N3CCCOC(C)C3)nc3c(c2=O)C[C@@H](C)N(C(=O)c2ccc(Cl)c(Cl)c2)C3)cc1` (some centres unmarked) [Compound C558], the concentration for a half-maximal effect (EC50) in data set [1] (setting [2]) was determined as 0.46 µM. Further, in the data set “in vitro” (setting [3]), the CC50 at 3 days was > 50 µM.

As to `CC(C)Nc1nc2c(c(=O)n1-c1ccc(S(C)(=O)=O)cc1)CCN(C(=O)c1ccc3cncn3c1)C2` [Compound C356], the EC50 in data set [1] (setting [4]) was > 50 µM. Moreover, the CC50 at 3 days in “in vitro” (setting [5]) is > 50 µM.

Regarding `CNC(=O)c1ccc(-n2c(N[C@H](C)c3ccc(OC)c(OC)c3)nc3c(c2=O)C[C@@H](C)N(C(=O)c2ccc(Cl)c(Cl)c2)C3)cc1` (single isomer, unassigned) [Compound C415a], the EC50 in data set [1] (setting [2]) was found to be 1.06 µM. This compound had a CC50 at 3 days in “in vitro” (setting [3]) of 32.9 µM.

In the case of `CNC(=O)c1ccc(-n2c(N3CC4CC3C4)nc3c(c2=O)C[C@@H](C)N(C(=O)c2ccc(Cl)c(C(F)(F)F)c2)C3)c(Cl)c1` (single isomer, unassigned) [Compound C701a], the EC50 in data set [1] (setting [4]) was 0.04 µM. In the data set “in vitro” (3-days incubation (unmarked values), ATPlite viability), the CC50 at 3 days was > 50 µM.

On to `CC(C)Nc1nc2c(c(=O)n1CCNS(C)(=O)=O)CCN(C(=O)c1ccc(Cl)c(Cl)c1)C2` [Compound C112, N-{2-[7-(3,4-dichlorobenzoyl)-4-oxo-2-[(propan-2-yl)amino]-5,6,7,8-tetrahydropyrido[3,4-d]pyrimidin-3(4H)-yl]ethyl}methanesulfonamide], for which the EC50 in data set [1] (setting [4]) came to 11.5 µM. In addition, in “in vitro” (setting [5]), the CC50 at 3 days was > 50 µM.

In the case of `CC(C)Nc1nc2c(c(=O)n1-c1cccc(-c3cn[nH]n3)c1)C[C@@H](C)N(C(=O)c1ccc(Cl)c(Cl)c1)C2` [Compound C448], in data set [1] (setting [2]), the EC50 turned out to be 0.12 µM. In addition, it took 27.9 µM to reach half-maximal cytotoxicity in the data set “in vitro” (setting [3]) (CC50 at 3 days).

On to `COc1ccc(CNc2nc3c(c(=O)[nH]2)CCN(C(=O)c2ccc(Cl)c(F)c2)C3)cc1` [Compound C106, 7-(4-chloro-3-fluorobenzoyl)-2-{[(4-methoxyphenyl)methyl]amino}-5,6,7,8-tetrahydropyrido[3,4-d]pyrimidin-4(3H)-one], for which, in data set [1] (setting [4]), the EC50 was 21.1 µM. In addition, the CC50 at 3 days in “in vitro” (setting [5]) is 27.1 µM.

As to `CC(C)Nc1nc2c(c(=O)n1-c1ccc(-c3ccco3)cc1)CCN(C(=O)c1ccc(Cl)c(Cl)c1)C2` [Compound C175, 7-(3,4-dichlorobenzoyl)-3-[4-(furan-2-yl)phenyl]-2-[(propan-2-yl)amino]-5,6,7,8-tetrahydropyrido[3,4-d]pyrimidin-4(3H)-one], in data set [1] (setting [4]), the EC50 worked out at 1.25 µM. Half-maximal cytotoxicity in “in vitro” (setting [5]) (CC50 at 3 days) was put at 17 µM.

Regarding `CNC(=O)c1ccc(-n2c(N[C@H](C)CCO)nc3c(c2=O)C[C@@H](C)N(C(=O)c2ccc(Cl)c(Cl)c2)C3)cc1` [Compound C326, 4-[(6R)-7-(3,4-dichlorobenzoyl)-2-{[(2R)-4-hydroxybutan-2-yl]amino}-6-methyl-4-oxo-5,6,7,8-tetrahydropyrido[3,4-d]pyrimidin-3(4H)-yl]-N-methylbenzamide], the EC50 in data set [1] (setting [4]) turned out to be 0.46 µM. Also, the CC50 at 3 days in “in vitro” (setting [5]) is > 50 µM.

As for `CC(C)Nc1nc2c(c(=O)n1-c1ccc(-c3nccs3)cc1)CCN(C(=O)c1ccc(Cl)c(Cl)c1)C2` [Compound C238, 7-(3,4-dichlorobenzoyl)-2-[(propan-2-yl)amino]-3-[4-(1,3-thiazol-2-yl)phenyl]-5,6,7,8-tetrahydropyrido[3,4-d]pyrimidin-4(3H)-one], the EC50 in data set [1] (setting [4]) amounted to 0.56 µM. For the same compound, the CC50 at 3 days in the data set “in vitro” (setting [5]) is > 50 µM.

On to `CNC(=O)c1ccc(-n2c(N[C@H](CCO)C3CC3)nc3c(c2=O)C[C@@H](C)N(C(=O)c2ccc(Cl)c(Cl)c2)C3)cc1` (single isomer, unassigned) [Compound C283, 4-[(6R)-2-{[(1*R)-1-cyclopropyl-3-hydroxypropyl]amino}-7-(3,4-dichlorobenzoyl)-6-methyl-4-oxo-5,6,7,8-tetrahydropyrido[3,4-d]pyrimidin-3(4H)-yl]-N-methylbenzamide], for which, in data set [1] (setting [4]), the EC50 stood at 5.52 µM. Further, the CC50 at 3 days in “in vitro” (setting [5]) is > 50 µM.

Consider `CNC(=O)c1ccc(-n2c(NCc3n[nH]c(C)n3)nc3c(c2=O)C[C@@H](C)N(C(=O)c2ccc(Cl)c(Cl)c2)C3)cc1` [Compound C541], for which the EC50 in data set [1] (setting [2]) was > 25 µM. In the data set “in vitro” (setting [3]), the 50% cytotoxic concentration (CC50) at 3 days is > 50 µM.

Turning to `CC(C)Nc1nc2c(c(=O)n1-c1ccc(-n3ccnn3)cc1)C[C@@H](C)N(C(=O)c1ccc(Cl)c(Cl)c1)C2` [Compound C430], in data set [1] (setting [2]), the EC50 was 0.06 µM. Further, the CC50 at 3 days in “in vitro” (setting [3]) was > 50 µM.

Take `CNC(=O)c1ccc(-n2c(NC(C)C)nc3c(c2=O)C[C@@H](C)N(C(=O)c2cc4c(C)c(F)ccc4[nH]2)C3)cc1` [Compound C570]: in data set [1] (setting [2]), the EC50 is 0.01 µM. Moreover, the CC50 at 3 days in “in vitro” (setting [3]) was 24.5 µM.

As for `CNC(=O)c1ccc(-n2c(NC(C)C)nc3c(c2=O)C[C@@H](C)N(C(=O)c2cc4ccc(OC)cc4s2)C3)cc1` [Compound C524], in data set [1] (setting [2]), the EC50 turned out to be 1.36 µM. Further, the CC50 at 3 days in the data set “in vitro” (setting [3]) is > 50 µM.

Regarding `COc1ccccc1-n1c(NCC(C)C)nc2c(c1=O)CCN(C(=O)c1ccc(Cl)c(Cl)c1)C2` [Compound C22, 7-(3,4-dichlorobenzoyl)-3-(2-methoxyphenyl)-2-[(2-methylpropyl)amino]-5,6,7,8-tetrahydropyrido[3,4-d]pyrimidin-4(3H)-one], the EC50 in data set [1] (setting [4]) is 21.7 µM. In addition, the midpoint of cytotoxicity in “in vitro” (ATPlite), the CC50 at 4 days, lay at 26.2 µM.

With `COc1ccc(CNc2nc3c(c(=O)n2C(C)C)CCN(C(=O)c2ccc(Cl)c(Cl)c2)C3)cc1` [Compound C72, 7-(3,4-dichlorobenzoyl)-2-{[(4-methoxyphenyl)methyl]amino}-3-(propan-2-yl)-5,6,7,8-tetrahydropyrido[3,4-d]pyrimidin-4(3H)-one], in data set [1] (setting [4]), the EC50 was 2.77 µM. This compound also yielded a 50% cytotoxic concentration (CC50) at 3 days in “in vitro” (setting [5]) of 40 µM.

Consider `CC(C)Nc1nc2c(c(=O)n1-c1ccc(-c3cn[nH]c3)cc1)CCN(C(=O)c1ccc(Cl)c(Cl)c1)C2` [Compound C186, 7-(3,4-dichlorobenzoyl)-2-[(propan-2-yl)amino]-3-[4-(1H-pyrazol-4-yl)phenyl]-5,6,7,8-tetrahydropyrido[3,4-d]pyrimidin-4(3H)-one], for which the EC50 in data set [1] (setting [4]) came to 0.51 µM. Moreover, the CC50 at 3 days in the data set “in vitro” (setting [5]) is > 50 µM.

On to `CNC(=O)c1ccc(-n2c(NCc3cccc(-c4nccn4C)c3)nc3c(c2=O)C[C@@H](C)N(C(=O)c2ccc(Cl)c(Cl)c2)C3)cc1` [Compound C488], for which, in data set [1] (setting [2]), the EC50 was determined as 7.31 µM. This compound also showed a CC50 at 3 days in “in vitro” (setting [3]) of 28.2 µM.

With `CNC(=O)c1ccc(-n2c(NCc3cnnn3C)nc3c(c2=O)C[C@@H](C)N(C(=O)c2ccc(Cl)c(Cl)c2)C3)cc1` [Compound C557], the EC50 in data set [1] (setting [2]) was > 25 µM. In addition, the CC50 at 3 days in “in vitro” (setting [3]) is > 50 µM.

As to `CNC(=O)c1ccc(-n2c(NCc3csc(C4CC4)n3)nc3c(c2=O)C[C@@H](C)N(C(=O)c2ccc(Cl)c(Cl)c2)C3)cc1` [Compound C490], in data set [1] (setting [2]), the EC50 was 0.89 µM. Moreover, the CC50 at 3 days in “in vitro” (setting [3]) was 28.4 µM.
